Test results reported in ChEMBL document CHEMBL1201862, “PubChem BioAssay data set” (2004).
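Tested at 5 concentrations; 48 h exposure; 96-well plates; endpoints linearly interpolated, else capped at highest concentration. At the GI50, growth is halved.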 Activity calls are given as the source filed them. Cut-off read from the data, not from the text of the source: active = GI50 up to about 1.1 µM and inactive = higher.

Columns and labels:
Test in all cases: NCI tumour cell line growth inhibition, 48 h
786-0 = test system: 786-0
A498 = test system: A498
A549 = test system: A549
ACHN = test system: ACHN
BT-549 = test system: BT-549
CAKI-1 = test system: CAKI-1
CCRF-CEM = test system: CCRF-CEM
COLO 205 = test system: COLO 205
DU-145 = test system: DU-145
EKVX = test system: EKVX
HCT-116 = test system: HCT-116
HCT-15 = test system: HCT-15
HL-60 = test system: HL-60
HOP-62 = test system: HOP-62
HT-29 = test system: HT-29
Hs-578T = test system: Hs-578T
IGROV-1 = test system: IGROV-1
K562 = test system: K562
KM12 = test system: KM12
LOX IMVI = test system: LOX IMVI
M14 = test system: M14
MCF7 = test system: MCF7
MDA-MB-231 = test system: MDA-MB-231
MDA-MB-435 = test system: MDA-MB-435
MDA-N = test system: MDA-N
MOLT-4 = test system: MOLT-4
Malme-3M = test system: Malme-3M
NCI-H226 = test system: NCI-H226
NCI-H23 = test system: NCI-H23
NCI-H460 = test system: NCI-H460
NCI-H522 = test system: NCI-H522
NCI/ADR-RES = test system: NCI/ADR-RES
OVCAR-3 = test system: OVCAR-3
OVCAR-4 = test system: OVCAR-4
OVCAR-5 = test system: OVCAR-5
OVCAR-8 = test system: OVCAR-8
PC-3 = test system: PC-3
RXF 393 = test system: RXF 393
SF-268 = test system: SF-268
SF-295 = test system: SF-295
SK-MEL-28 = test system: SK-MEL-28
SK-MEL-2 = test system: SK-MEL-2
SK-MEL-5 = test system: SK-MEL-5
SK-OV-3 = test system: SK-OV-3
SN12C = test system: SN12C
SNB-19 = test system: SNB-19
SW-620 = test system: SW-620
T47D = test system: T47D
TK-10 = test system: TK-10
U-251 = test system: U-251
UACC-257 = test system: UACC-257
UACC-62 = test system: UACC-62
UO-31 = test system: UO-31
HCC 2998 = test system: HCC 2998
RPMI-8226 = test system: RPMI-8226
SF-539 = test system: SF-539
SNB-75 = test system: SNB-75
SR = test system: SR
HOP-92 = test system: HOP-92

For `Nc1ccc(Oc2ccc(C34CC5CC(C3)CC(c3ccc(Oc6ccc(N)cc6C(F)(F)F)cc3)(C5)C4)cc2)c(C(F)(F)F)c1`, the GI50 (786-0) was 31.6 µM (inactive), the GI50 (A498) was 18.3 µM (inactive) and the GI50 (A549) was 19.1 µM (inactive). For the same compound, the GI50 (ACHN) was 32.9 µM (inactive), the GI50 (BT-549) was 21.9 µM (inactive) and the GI50 (CAKI-1) was 28.1 µM (inactive). The GI50 (CCRF-CEM) was 36.1 µM (inactive), the GI50 (COLO 205) was 19.1 µM (inactive) and the GI50 (DU-145) was 35.2 µM (inactive). The GI50 (EKVX) was 15.5 µM (inactive), the GI50 (HCT-116) was 24.9 µM (inactive) and the GI50 (HCT-15) was 31.8 µM. For the same compound, the GI50 (HL-60) was 24.2 µM (inactive), the GI50 (HOP-62) was 18.2 µM (inactive) and the GI50 (HT-29) was 17.2 µM (inactive). For the same compound, the GI50 (Hs-578T) was 17.1 µM (inactive), the GI50 (IGROV-1) was 19.5 µM (inactive) and the GI50 (K562) was 44 µM (inactive). The GI50 (KM12) was 21 µM (inactive), the GI50 (LOX IMVI) was 17.9 µM (inactive) and the GI50 (M14) was 16.9 µM (inactive). The GI50 (MCF7) was 13.4 µM (inactive), the GI50 (MDA-MB-231) was 15.2 µM (inactive) and the GI50 (MDA-MB-435) was 24.2 µM (inactive). For the same compound, the GI50 (MDA-N) was 36.6 µM (inactive), the GI50 (MOLT-4) was 35.7 µM (inactive) and the GI50 (Malme-3M) was 22.2 µM (inactive). The GI50 (NCI-H226) was 19.4 µM (inactive), the GI50 (NCI-H23) was 17.7 µM (inactive) and the GI50 (NCI-H460) was 18.4 µM (inactive). For the same compound, the GI50 (NCI-H522) was 14.4 µM (inactive), the GI50 (NCI/ADR-RES) was 21.7 µM (inactive) and the GI50 (OVCAR-3) was 17.9 µM (inactive). The GI50 (OVCAR-4) was 36.6 µM (inactive), the GI50 (OVCAR-5) was 27 µM (inactive) and the GI50 (OVCAR-8) was 16 µM (inactive). For the same compound, the GI50 (PC-3) was 14.8 µM (inactive), the GI50 (RXF 393) was 11.1 µM (inactive) and the GI50 (SF-268) was 17.4 µM (inactive). The GI50 (SF-295) was 25.3 µM (inactive), the GI50 (SK-MEL-28) was 43.3 µM (inactive) and the GI50 (SK-MEL-2) was 14.1 µM (inactive). The GI50 (SK-MEL-5) was 22 µM (inactive), the GI50 (SK-OV-3) was 15.6 µM (inactive) and the GI50 (SN12C) was 31.1 µM (inactive). For the same compound, the GI50 (SNB-19) was 22.5 µM (inactive), the GI50 (SW-620) was 36.3 µM (inactive) and the GI50 (T47D) was 15.1 µM (inactive). For the same compound, the GI50 (TK-10) was 16.1 µM (inactive), the GI50 (U-251) was 14.5 µM (inactive) and the GI50 (UACC-257) was 18.7 µM (inactive). The GI50 (UACC-62) was 22.1 µM (inactive) and the GI50 (UO-31) was 39.1 µM (inactive).

`CC(=O)OCC1=C2C(OC(=O)C(C)C)CC3(COC(C)=O)OC3/C=C\C3(C)OC3C2OC1=O` (centres undefined) was tested, and the GI50 (786-0) was > 100 µM (inactive), the GI50 (A498) was > 100 µM (inactive) and the GI50 (A549) was > 100 µM (inactive). The GI50 (ACHN) was > 100 µM (inactive), the GI50 (BT-549) was > 100 µM (inactive) and the GI50 (CAKI-1) was > 100 µM (inactive). The GI50 (CCRF-CEM) was 50.5 µM (inactive), the GI50 (COLO 205) was > 100 µM (inactive) and the GI50 (DU-145) was > 100 µM (inactive). For the same compound, the GI50 (EKVX) was > 100 µM (inactive), the GI50 (HCC 2998) was > 100 µM (inactive) and the GI50 (HCT-116) was > 100 µM (inactive). The GI50 (HCT-15) was over 100 µM, the GI50 (HL-60) was 34.4 µM (inactive) and the GI50 (HOP-62) was > 100 µM (inactive). The GI50 (HT-29) was > 100 µM (inactive), the GI50 (Hs-578T) was > 100 µM (inactive) and the GI50 (IGROV-1) was > 100 µM (inactive). For the same compound, the GI50 (K562) was > 100 µM (inactive), the GI50 (KM12) was > 100 µM (inactive) and the GI50 (LOX IMVI) was > 100 µM (inactive). The GI50 (M14) was > 100 µM (inactive), the GI50 (MCF7) was > 100 µM (inactive) and the GI50 (MDA-MB-231) was > 100 µM (inactive). The GI50 (MDA-MB-435) was > 100 µM (inactive), the GI50 (MDA-N) was > 100 µM (inactive) and the GI50 (MOLT-4) was > 100 µM (inactive). For the same compound, the GI50 (Malme-3M) was > 100 µM (inactive), the GI50 (NCI-H226) was > 100 µM (inactive) and the GI50 (NCI-H23) was > 100 µM (inactive). The GI50 (NCI-H460) was > 100 µM (inactive), the GI50 (OVCAR-3) was > 100 µM (inactive) and the GI50 (OVCAR-4) was > 100 µM (inactive). For the same compound, the GI50 (OVCAR-5) was > 100 µM (inactive), the GI50 (OVCAR-8) was > 100 µM (inactive) and the GI50 (PC-3) was > 100 µM (inactive). The GI50 (RPMI-8226) was > 100 µM (inactive), the GI50 (RXF 393) was > 100 µM (inactive) and the GI50 (SF-268) was > 100 µM (inactive). The GI50 (SF-295) was > 100 µM (inactive), the GI50 (SF-539) was > 100 µM (inactive) and the GI50 (SK-MEL-28) was > 100 µM (inactive). For the same compound, the GI50 (SK-MEL-2) was > 100 µM (inactive), the GI50 (SK-MEL-5) was > 100 µM (inactive) and the GI50 (SK-OV-3) was > 100 µM (inactive). For the same compound, the GI50 (SN12C) was > 100 µM (inactive), the GI50 (SNB-19) was > 100 µM (inactive) and the GI50 (SNB-75) was > 100 µM (inactive). The GI50 (SR) was > 100 µM (inactive), the GI50 (SW-620) was > 100 µM (inactive) and the GI50 (T47D) was > 100 µM (inactive). For the same compound, the GI50 (TK-10) was > 100 µM (inactive), the GI50 (U-251) was > 100 µM (inactive) and the GI50 (UACC-257) was > 100 µM (inactive). The GI50 (UACC-62) was > 100 µM (inactive) and the GI50 (UO-31) was > 100 µM (inactive).

In the case of `CCc1n[nH]c(=O)n1/N=C/c1ccc(C)cc1`, the GI50 (786-0) is reported as > 100 µM (inactive), the GI50 (A498) is reported as 79.6 µM (inactive) and the GI50 (A549) is reported as > 100 µM (inactive). The GI50 (ACHN) was > 100 µM (inactive), the GI50 (BT-549) was > 100 µM (inactive) and the GI50 (CAKI-1) was > 100 µM (inactive). For the same compound, the GI50 (CCRF-CEM) was > 100 µM (inactive), the GI50 (COLO 205) was > 100 µM (inactive) and the GI50 (DU-145) was 65.2 µM (inactive). For the same compound, the GI50 (EKVX) was 3.41 µM (inactive), the GI50 (HCC 2998) was > 100 µM (inactive) and the GI50 (HCT-116) was 97.9 µM (inactive). The GI50 (HCT-15) was over 100 µM, the GI50 (HL-60) was 1.37 µM (inactive) and the GI50 (HOP-62) was 37.7 µM (inactive). The GI50 (HOP-92) was > 100 µM (inactive), the GI50 (HT-29) was 54.3 µM (inactive) and the GI50 (Hs-578T) was 3.84 µM (inactive). For the same compound, the GI50 (IGROV-1) was 91 µM (inactive), the GI50 (K562) was > 100 µM (inactive) and the GI50 (KM12) was 69.3 µM (inactive). The GI50 (LOX IMVI) was 69.8 µM (inactive), the GI50 (MCF7) was > 100 µM (inactive) and the GI50 (MDA-MB-231) was > 100 µM (inactive). For the same compound, the GI50 (MDA-MB-435) was > 100 µM (inactive), the GI50 (MDA-N) was > 100 µM (inactive) and the GI50 (MOLT-4) was 5.2 µM (inactive). The GI50 (Malme-3M) was > 100 µM (inactive), the GI50 (NCI-H226) was 70.8 µM (inactive) and the GI50 (NCI-H23) was > 100 µM (inactive). For the same compound, the GI50 (NCI-H460) was > 100 µM (inactive), the GI50 (NCI-H522) was > 100 µM (inactive) and the GI50 (NCI/ADR-RES) was > 100 µM (inactive). For the same compound, the GI50 (OVCAR-3) was 69.5 µM (inactive), the GI50 (OVCAR-4) was 58.5 µM (inactive) and the GI50 (OVCAR-5) was > 100 µM (inactive). The GI50 (OVCAR-8) was > 100 µM (inactive), the GI50 (RPMI-8226) was 72.1 µM (inactive) and the GI50 (RXF 393) was > 100 µM (inactive). The GI50 (SF-268) was 66.5 µM (inactive), the GI50 (SF-295) was > 100 µM (inactive) and the GI50 (SF-539) was > 100 µM (inactive). For the same compound, the GI50 (SK-MEL-28) was > 100 µM (inactive), the GI50 (SK-MEL-2) was > 100 µM (inactive) and the GI50 (SK-MEL-5) was > 100 µM (inactive). For the same compound, the GI50 (SK-OV-3) was > 100 µM (inactive), the GI50 (SN12C) was > 100 µM (inactive) and the GI50 (SNB-19) was > 100 µM (inactive). The GI50 (SW-620) was > 100 µM (inactive), the GI50 (T47D) was > 100 µM (inactive) and the GI50 (TK-10) was 60.3 µM (inactive). The GI50 (U-251) was > 100 µM (inactive), the GI50 (UACC-257) was 97.7 µM (inactive) and the GI50 (UACC-62) was 60.7 µM (inactive). The GI50 (UO-31) was 64.9 µM (inactive).
